{"source": "ChEMBL document CHEMBL4616720", "about": "(J Med Chem, 2020)", "key": {"[1]": {"assay": "Clearance in Sprague-Dawley rat at 2 mg/kg, iv measured up to 24 hrs by LC-MS/MS analysis", "format": "ADME, organism-based", "conditions": "in vivo"}, "[2]": {"assay": "Apparent volume of distribution at steady state in Sprague-Dawley rat at 2 mg/kg, iv measured up to 24 hrs by LC-MS/MS analysis", "format": "ADME, organism-based", "conditions": "in vivo, read-out: Vdss(app)"}, "[3]": {"assay": "Toxicity in KM mouse assessed as weight loss at 262.1 to 640 mg/kg, ip administered as single dose measured 3 times per week for 14 days", "format": "organism-based", "conditions": "in vivo, 336 h"}, "[4]": {"system": "A549", "assay": "Antiproliferative activity against human A549 cells assessed as reduction in cell growth measured after 48 hrs by CCK8 assay", "format": "functional, cell-based", "conditions": "A549, 48 h"}, "[5]": {"assay": "Selectivity index, ratio of IC50 for human MCF10A cells assessed as reduction in cell growth measured after 48 hrs by CCK8 assay to IC50 for human HCT116 cells assessed as reduction in cell growth measured after 48 hrs by CCK8", "format": "toxicity", "conditions": "MCF10A cells versus HCT116 cells, read-out: Ratio IC50"}}}
{"smiles": "O=C(C[C@@H](CC1CCCC1)C(=O)N1CC2(CC2)C[C@H]1c1nc(-c2ccc(F)cc2C(F)(F)F)no1)NO", "values": [{"measurement": "CL", "setting": "[1]", "result": 26.68, "unit": "L/kg/h"}, {"measurement": "Vd", "setting": "[2]", "result": 5.26, "unit": "L/kg"}, {"measurement": "Activity", "setting": "[3]", "result": "Toxic"}, {"measurement": "IC50", "setting": "[4]", "result": 2580, "unit": "nM"}, {"measurement": "selectivity ratio at 48 h", "setting": "[5]", "result": 9}]}
